{"source": "patent US4963553A", "about": "“4-[(substituted) alkylcarbonyl]-4,5-dihydro- and -4,5,6,7-tetrahydro-7-[(substituted)phenyl]pyrazolo[1,5-a]pyrimidines” (American Cyanamid Co., priority 1988, dated 1990)", "note": "Structures can show the parent of a compound that is named as a salt."}
{"test_system": "Spontaneously Hypertensive Rats", "test": "Hypotensive activity: mean arterial blood pressure in spontaneously hypertensive rats", "assay_type": "in vivo, rat (Okamoto strain, male)", "conditions": "SHR, gavage, 100 mg/kg or less, two doses 24 h apart, measured at 28 hours; average MABP of rats used 160±1.5 mm", "description": "The novel compounds of the invention are active hypotensive agents at nontoxic doses when administered to mammals. These compounds were tested for hypotensive activity by the method of P. S. Chan and D. W. Poorvin, Clinical and Experimental Hypertension, (6), 817-830 (1979). Male, 16 week old, spontaneously hypertensive rats of the Okamoto strain (Taconic Farms, Germantown, N.Y.) having an average means arterial blood pressure of 160±1.5 mm of mercury are used in the test. A rat is dosed by gavage with a test compound, suspended in 2% pre-boiled starch at a concentration of 50 mg/ml, at a dose of 100 mg/kg of body weight or less, with 0.9% sodium chloride loading at a dose of 25 ml/kg of body weight. A second identical dose of the test compound, without sodium chloride loading is given 24 hours later. At 28 hours after the initial dose the mean arterial blood pressure is measured by the method of Chan and Poorvin vide supra.", "units": {"MABP/mmHg (mean arterial blood pressure)": "mmHg"}}
{"smiles": "N#Cc1cnn2c1N(C(=O)CN1CCN(C(c3ccccc3)c3ccc(Cl)cc3)CC1)CC=C2c1cccc(C(F)(F)F)c1", "note": "(stereo not shown) [Example 21, 4-[[4-[(4-Chlorophenyl)phenylmethyl]-1-piperazinyl]acetyl]-4,5-dihydro-7-[3-(trifluoromethyl)phenyl]pyrazolo[1,5-a]pyrimidine-3-carbonitrile]", "MABP/mmHg (mean arterial blood pressure)": 134}
{"smiles": "N#Cc1cnn2c1N(C(=O)CN1CCN(c3ccccc3)CC1)CC=C2c1cccc(C(F)(F)F)c1", "note": "[Example 25, 4,5-Dihydro-4-[(4-phenyl-1-piperazinyl)acetyl]-7-[3-(trifluoromethyl)phenyl]pyrazolo[1,5-a]pyrimidine-3-carbonitrile]", "MABP/mmHg (mean arterial blood pressure)": 137}
{"test_system": "mice (hypoxic environment)", "test": "Hypoxic survival test", "assay_type": "in vivo, mouse (Royal Hart)", "conditions": "100 mg/kg, intraperitoneal, 10% oxygen, 5 minutes", "description": "(§1) The hypoxic survival test is a useful in vivo test for measuring the effectiveness of central nervous system-acting drugs in enhancing survival in an hypoxic environment relative to the known parasympathomimetic agent physostigmine.\n(§2) Drugs are tested by intraperitoneal injection of groups of mice 30 minutes prior to placing them in an hypoxic environment and measuring survival. The rationale of this test is that drugs which enhance survival under hypoxic conditions without concomitant depression or sedative side effects, do so by enhancing brain metabolism, i.e., by improving energy supply relative to demand and so preserving normal brain function under conditions of reduced energy metabolism. Considering the dependence of the brain on a constant supply of energy, drugs which have this property may have many far-reaching therapeutic indications, including aiding recovery from stroke and closed head injury and reducing the deleterious effects of age-related central nervous system deficits.\n(§3) In the hypoxic survival test, groups of 20 Royal Hart mice (6 weeks of age) were injected intraperitoneally with a test compound in saline at various doses ranging from 1 to 200 mg/kg, 30 minutes prior to placing them in an hypoxic mixture (10% oxygen, 90% […]) and measuring survival after 5 minutes.\n(§4) A control group of 20 mice was injected intraperitoneally with saline (0.01 ml/g of body weight) and processed as described above.\n(§5) Another group of 20 mice was injected intraperitoneally with 0.125 mg/kg of physostigmine in saline and processed as described above.", "units": {"% Survivors": "%"}}
{"smiles": "COc1ccc(C(=O)N2CCN(CC(=O)N3CC=C(c4cccc(C(F)(F)F)c4)n4ncc(C#N)c43)CC2)cc1.Cl", "note": "[Example 163, 4,5-Dihydro-4-[[4-(4-methoxybenzoyl)-1-piperazinyl]acetyl]-7-[3-(trifluoromethyl)phenyl]pyrazolo[1,5-a]pyrimidine-3-carbonitrile, monohydrochloride]", "% Survivors": 25}
{"test_system": "mice (hypoxic environment)", "test": "Hypoxic survival test", "assay_type": "in vivo, mouse (Royal Hart)", "conditions": "100 mg/kg, intraperitoneal, 10% oxygen, 5 minutes; listed as 4,5-Dihydro-4-[[4-[(3-trifluoromethyl-phenyl)methyl]-1-piperazinyl]acetyl]-7-[3-, dihydrochloride", "description": "as §1, §2, §3, §4, §5", "units": {"% Survivors": "%"}}
{"smiles": "N#Cc1cnn2c1N(C(=O)CN1CCN(Cc3cccc(C(F)(F)F)c3)CC1)CC=C2c1cccc(C(F)(F)F)c1", "note": "[Example 145, 4,5-Dihydro-7-[3-(trifluoromethyl)phenyl-4-[[4-[[3-(trifluoromethyl)phenyl]methyl]-1-piperazinyl]acetyl]pyrazolo[1,5-a]pyrimidine-3-carbonitrile, dihydrochloride]", "% Survivors": 85}
{"test_system": "mice (hypoxic environment)", "test": "Hypoxic survival test", "assay_type": "in vivo, mouse (Royal Hart)", "conditions": "10% oxygen, after 5 minutes; physostigmine group 0.125 mg/kg intraperitoneal", "description": "as §1, §2, §3, §4, §5"}
{"smiles": "CNC(=O)Oc1ccc2c(c1)[C@]1(C)CCN(C)[C@@H]1N2C", "note": "[physostigimine, reference compound]", "mice surviving (physostigmine-treated)": "60-80%"}
{"test_system": "mice (hypoxic environment)", "test": "Hypoxic survival test", "assay_type": "in vivo, mouse (Royal Hart)", "conditions": "Mus musculus, ip, 5 min, 10 mg/kg, intraperitoneal, 10% oxygen, 5 minutes; read-out: % Survivors", "description": "as §1, §2, §3, §4, §5", "units": {"responders at 10 mg/kg": "%"}}
{"smiles": "COc1cccc(CN2CCN(CC(=O)N3CC=C(c4ccccc4)n4ncc(C#N)c43)CC2)c1", "note": "[Example 150, 4,5-Dihydro-4-[[4-[(3-methoxyphenyl)methyl]-1-piperazinyl]acetyl]-7-phenylpyrazolo[1,5-a]pyrimidine-3-carbonitrile, dihydrochloride]", "responders at 10 mg/kg": 45}
{"smiles": "N#Cc1cnn2c1N(C(=O)CN1CCN(Cc3ccccc3C(F)(F)F)CC1)CC=C2c1cccc(C(F)(F)F)c1", "note": "[Example 152, 4,5-Dihydro-7-[3-(trifluoromethyl)phenyl]-4-[[4-[[2-(trifluoromethyl)phenyl]methyl]-1-piperazinyl]acetyl]pyrazolo[1,5-]pyrimidine-3-carbonitrile dihydrochloride]", "responders at 10 mg/kg": 30}
{"smiles": "O=C(CN1CCN(Cc2ccccc2)CC1)N1CC=C(c2cccc(C(F)(F)F)c2)n2ncc(Br)c21", "note": "[Example 154, 3-Bromo-4,5-dihydro-4-[[4-(phenylmethyl)-1-piperazinyl]acetyl]-7-[3-(trifluoromethyl)phenyl]pyrazolo[1,5-a]pyrimidine, dihydrochloride]", "responders at 10 mg/kg": 20}
{"test_system": "mice (hypoxic environment)", "test": "Hypoxic survival test", "assay_type": "in vivo, mouse (Royal Hart)", "conditions": "Mus musculus, ip, 5 min, 100 mg/kg, intraperitoneal, 10% oxygen, 5 minutes; read-out: % Survivors", "description": "as §1, §2, §3, §4, §5", "units": {"responders at 100 mg/kg": "%"}}
{"smiles": "COc1cccc(CN2CCN(CC(=O)N3CC(C)=C(c4cccc(Cl)c4)n4ncc(C#N)c43)CC2)c1", "note": "[Example 143, 7-(3-Chlorophenyl)-4,5-dihydro-4-[[4-[(3-methoxyphenyl)methyl]-1-piperazinyl]acetyl]-6-methylpyrazolo[1,5-a]pyrimidine-3-carbonitrile, dihydrochloride]", "responders at 100 mg/kg": 65}
{"smiles": "COc1cccc(CN2CCN(CC(=O)N3CC=C(c4ccccc4)n4ncc(C#N)c43)CC2)c1", "note": "[Example 148, 4,5-Dihydro-4-[[4-[(3-methoxyphenyl)methyl]-1-piperazinyl]acetyl]-7-phenylpyrazolo[1,5-a]pyrimidine-3-carbonitrile]", "responders at 100 mg/kg": 55}
{"smiles": "Cc1cccc(C2=CCN(C(=O)CN3CCN(Cc4ccccc4)CC3)c3c(C#N)cnn32)c1", "note": "[Example 149, 4,5-Dihydro-7-(3-methylphenyl)-4-[[4-(phenylmethyl)-1-piperazinyl]acetyl]pyrazolo[1,5-a]pyrimidine-3-carbonitrile, hydrochloride]", "responders at 100 mg/kg": 55}
{"smiles": "N#Cc1cnn2c1N(C(=O)CN1CCN(Cc3ccccc3C(F)(F)F)CC1)CC=C2c1cccc(C(F)(F)F)c1", "note": "[Example 151, 4,5-Dihydro-7-[3-(trifluoromethyl)phenyl]-4-[[4-[[2-(trifluoromethyl)phenyl]methyl]-1-piperazinyl]acetyl]pyrazolo[1,5-a]pyrimidine-3-carbonitrile]", "responders at 100 mg/kg": 20}
{"smiles": "N#Cc1cnn2c1N(C(=O)CN1CCN(c3ccc(F)cc3)CC1)CC=C2c1cccc(C(F)(F)F)c1", "note": "[Example 153, 4-[[4-(4-Fluorophenyl)-1-piperazinyl]acetyl]4,5-dihydro-7-[3-(trifluoromethyl)phenyl]pyrazolo[1,5-a]pyrimidine-3-carbonitrile, monohydrochloride]", "responders at 100 mg/kg": 35}
{"smiles": "O=C(CN1CCN(Cc2ccccc2)CC1)N1CC=C(c2cccc(C(F)(F)F)c2)n2ncc(Cl)c21", "note": "[Example 155, 3-Chloro-4,5-dihydro-4-[[4-(phenylmethyl-1-piperazinyl]acetyl]-7-[3-trifluoromethyl)phenylpyrazolo[1,5-a]pyrimidine, dihydrochloride]", "responders at 100 mg/kg": 25}
{"smiles": "N#Cc1cnn2c1N(C(=O)CN1CCN(Cc3ccccc3F)CC1)CC=C2c1cccc(C(F)(F)F)c1", "note": "[Example 156, 4-[[4-[(2-Fluorophenyl)methyl]-1-piperazinyl]acetyl]4,5-dihydro-7-[3-(trifluoromethyl)phenyl]pyrazolo[1,5-a]pyrimidine-3-carbonitrile]", "responders at 100 mg/kg": 55}
{"smiles": "CC1=C(c2cccc(Cl)c2)n2ncc(C#N)c2N(C(=O)CN2CCN(Cc3ccccc3F)CC2)C1", "note": "[Example 157, 7-(3-Chlorophenyl)-4-[[4-[(2-fluorophenyl)methyl]-1-piperazinyl]acetyl]-4,5-dihydro-6-methylpyrazolo[1,5-a]pyrimidine-3-carbonitrile, dihydrochloride]", "responders at 100 mg/kg": 45}
{"smiles": "N#Cc1cnn2c1N(C(=O)CN1CCN(C(=O)OCc3ccccc3)CC1)CC=C2c1cccc(C(F)(F)F)c1", "note": "[Example 158, 4-[2-[3-Cyano-7-[3-(trifluoromethyl)phenyl]pyrazolo[1,5-a]pyrimidin-4(5H)-yl]-2-oxoethyl]-1-piperazinecarboxylic acid, phenylmethyl ester]", "responders at 100 mg/kg": 55}
{"smiles": "CC1=C(c2cccc(C(F)(F)F)c2)n2ncc(C#N)c2N(C(=O)CN2CCN(Cc3cccc(C(F)(F)F)c3)CC2)C1", "note": "[Example 160, 4,5-Dihydro-6-methyl-7-[3-(trifluoromethyl)phenyl]-4-[[4-[[3-(trifluoromethyl)phenyl]methyl]-1-piperazinyl]acetyl]pyrazolo[1,5-a]pyrimidine-3-dihydrochloride]", "responders at 100 mg/kg": 40}
{"smiles": "CCC1=C(c2cccc(C(F)(F)F)c2)n2ncc(C#N)c2N(C(=O)CN2CCN(Cc3ccccc3)CC2)C1", "note": "[Example 161, 4,5-Dihydro-6-ethyl-4-[[4-(phenylmethyl)-1-piperazinyl]acetyl]-7-[3-(trifluoromethyl)phenyl]pyrazolo[1,5-a]pyrimidine-3-carbonitrile]", "responders at 100 mg/kg": 25}
{"smiles": "COc1ccc(C(=O)N2CCN(CC(=O)N3CC=C(c4cccc(C(F)(F)F)c4)n4ncc(C#N)c43)CC2)cc1", "note": "[Example 162, 4,5-Dihydro-4-[[4-(4-methoxybenzoyl)-1-piperazinyl]acetyl]-7-[3-(trifluoromethyl)phenyl]pyrazolo[1,5-a]pyrimidine-3-carbonitrile]", "responders at 100 mg/kg": 45}
{"test_system": "mice (hypoxic environment)", "test": "Hypoxic survival test", "assay_type": "in vivo, mouse (Royal Hart)", "conditions": "Mus musculus, ip, 5 min, 200 mg/kg, intraperitoneal, 10% oxygen, 5 minutes; read-out: % Survivors", "description": "as §1, §2, §3, §4, §5", "units": {"responders at 200 mg/kg": "%"}}
{"smiles": "CCC1=C(c2cccc(C(F)(F)F)c2)n2ncc(C#N)c2N(C(=O)CN2CCN(Cc3ccccc3)CC2)C1", "note": "[Example 140, 4,5-Dihydro-6-ethyl-4[[4-(phenylmethyl)-1-piperazinyl]acetyl]7-[3-(trifluoromethyl)phenyl]pyrazolo[1,5-a]pyrimidine-3-carbonitrile]", "responders at 200 mg/kg": 42}
{"smiles": "CC1=C(c2ccc(Cl)cc2)n2ncc(C#N)c2N(C(=O)CN2CCN(Cc3cccc(C(F)(F)F)c3)CC2)C1", "note": "[Example 142, 7-(4-Chlorophenyl)-4,5-dihydro-6-methyl-4-[[4-[[3-(trifluoromethyl)phenyl]methyl-1-piperazinyl]acetyl]pyrazolo[1,5-a]pyrimidine-3-carbonitrile, dihydrochloride]", "responders at 200 mg/kg": 37.5}
